Reference: PubChem BioAssay AID216 (DTP/NCI, 2004)
“And” between values parts separate entries of the source, which are not always exact repeats. Equal entries are not always repeated. Inconclusive results and toxic doses are left out.

System: BDF1 mice, P288 leukemia ip, survival T/C
Assay: NCI In Vivo Anticancer Drug Screen. Data for tumor model P288 Lymphocytic Leukemia (intraperitoneal) in B6D2F1 (BDF1) mice
Conditions: higher = longer survival
Experimental: The antitumor activity of compounds was measured in mice bearing transplantable tumors. Survival or tumor size were measured and the results are expressed as the measurement made in the treated group (T) divided by the measurement made in the vehicle treated control group (C). The tumor model used in this assay is P288 Lymphocytic Leukemia (intraperitoneal) in B6D2F1 (BDF1) mice

Structure (SMILES): CCN(CC)c1ccc2cc3ccc(=[N+](CC)CC)cc-3oc2c1
- T/C (endpoint: survival time, mean or median, dose: 0.08 mg/kg/injection, schedule: Q01DX Z (ip), vehicle: carboxymethylcellulose (CMC)): 110 % of control
- T/C (endpoint: survival time, mean or median, dose: 0.16 mg/kg/injection, schedule: Q01DX Z (ip), vehicle: carboxymethylcellulose (CMC)): 90 % of control
- T/C (endpoint: survival time, mean or median, dose: 0.31 mg/kg/injection, schedule: Q01DX Z (ip), vehicle: carboxymethylcellulose (CMC)): 108 % of control
- T/C (endpoint: survival time, mean or median, dose: 0.32 mg/kg/injection, schedule: Q01DX Z (ip), vehicle: carboxymethylcellulose (CMC)): 96 % of control
- T/C (endpoint: survival time, mean or median, dose: 0.63 mg/kg/injection, schedule: Q01DX Z (ip), vehicle: carboxymethylcellulose (CMC)): 100 % of control
- T/C (endpoint: survival time, mean or median, dose: 1.25 mg/kg/injection, schedule: Q01DX Z (ip), vehicle: carboxymethylcellulose (CMC)): 106 % of control
- T/C (endpoint: survival time, mean or median, dose: 2.5 mg/kg/injection, schedule: Q01DX Z (ip), vehicle: carboxymethylcellulose (CMC)): 102 % of control
- T/C (endpoint: survival time, mean or median, dose: 5.0 mg/kg/injection, schedule: Q01DX Z (ip), vehicle: carboxymethylcellulose (CMC)): 115 % of control and 117 % of control

Structure (SMILES): C[C@@H]1C[C@@H]([C@H](O)CC2CC(=O)NC(=O)C2)C(=O)[C@@H](C)C1
- T/C (endpoint: survival time, mean or median, dose: 10.0 mg/kg/injection, schedule: Q01DX010 (ip), vehicle: saline): 94 % of control
- T/C (endpoint: survival time, mean or median, dose: 12.5 mg/kg/injection, schedule: Q01DX Z (ip), vehicle: water): 94 % of control
- T/C (endpoint: survival time, mean or median, dose: 20.0 mg/kg/injection, schedule: Q01DX010 (ip), vehicle: saline): 94 % of control
- T/C (endpoint: survival time, mean or median, dose: 25.0 mg/kg/injection, schedule: Q01DX Z (ip), vehicle: water): 98 % of control
- T/C (endpoint: survival time, mean or median, dose: 40.0 mg/kg/injection, schedule: Q01DX010 (ip), vehicle: saline): 105 % of control

Structure (SMILES): CCOC(N)=O
- T/C (endpoint: survival time, mean or median, dose: 125.0 mg/kg/injection, schedule: Q01DX010 (ip), vehicle: saline): 110 % of control and 94 % of control
- T/C (endpoint: survival time, mean or median, dose: 250.0 mg/kg/injection, schedule: Q01DX010 (ip), vehicle: saline): 94 % of control
- T/C (endpoint: survival time, mean or median, dose: 500.0 mg/kg/injection, schedule: Q01DX010 (ip), vehicle: saline): 94 % of control

Structure (SMILES): CSCS(=O)C[C@H](CO)NC(=O)/C=C/c1c(C)[nH]c(=O)[nH]c1=O (stereo partly specified)
- T/C (endpoint: survival time, mean or median, dose: 0.06 mg/kg/injection, schedule: Q01DX Z (ip), vehicle: saline): 102 % of control
- T/C (endpoint: survival time, mean or median, dose: 0.12 mg/kg/injection, schedule: Q01DX Z (ip), vehicle: saline): 96 % of control
- T/C (endpoint: survival time, mean or median, dose: 0.25 mg/kg/injection, schedule: Q01DX Z (ip), vehicle: saline): 107 % of control and 96 % of control
- T/C (endpoint: survival time, mean or median, dose: 0.5 mg/kg/injection, schedule: Q01DX Z (ip), vehicle: saline): 90 % of control and 96 % of control
- T/C (endpoint: survival time, mean or median, dose: 1.0 mg/kg/injection, schedule: Q01DX Z (ip), vehicle: saline): 97 % of control

Structure (SMILES): CN(Cc1cnc2nc(N)nc(N)c2n1)c1ccc(C(=O)N[C@@H](CCC(=O)O)C(=O)O)cc1
- T/C (endpoint: median survival time, dose: 0.38 mg/kg/injection, schedule: Q01DX009 (ip), vehicle: sodium bicarbonate): 183 % of control
- T/C (endpoint: median survival time, dose: 0.75 mg/kg/injection, schedule: Q01DX009 (ip), vehicle: sodium bicarbonate): 191 % of control
- T/C (endpoint: median survival time, dose: 1.5 mg/kg/injection, schedule: Q01DX009 (ip), vehicle: sodium bicarbonate): 220 % of control
- T/C (endpoint: median survival time, dose: 3.0 mg/kg/injection, schedule: Q01DX009 (ip), vehicle: sodium bicarbonate): 91 % of control
- T/C (endpoint: median survival time, dose: 6.0 mg/kg/injection, schedule: Q01DX009 (ip), vehicle: sodium bicarbonate): 154 % of control
- T/C (endpoint: survival time, mean or median, dose: 0.31 mg/kg/injection, schedule: Q01DX Z (ip), vehicle: other): 123 % of control
- T/C (endpoint: survival time, mean or median, dose: 0.38 mg/kg/injection, schedule: Q01DX010 (ip), vehicle: other): 162 % of control and 167 % of control and 193 % of control
- T/C (endpoint: survival time, mean or median, dose: 0.62 mg/kg/injection, schedule: Q01DX Z (ip), vehicle: other): 189 % of control and 222 % of control
- T/C (endpoint: survival time, mean or median, dose: 0.75 mg/kg/injection, schedule: Q01DX010 (ip), vehicle: other): 176 % of control and 228 % of control and 235 % of control
- T/C (endpoint: survival time, mean or median, dose: 1.25 mg/kg/injection, schedule: Q01DX Z (ip), vehicle: other): 219 % of control and 256 % of control and 261 % of control
- T/C (endpoint: survival time, mean or median, dose: 1.5 mg/kg/injection, schedule: Q01DX010 (ip), vehicle: other): 229 % of control and 230 % of control (2×)
- T/C (endpoint: survival time, mean or median, dose: 1.5 mg/kg/injection, schedule: Q01DX Z (ip), vehicle: other): 158 % of control
- T/C (endpoint: survival time, mean or median, dose: 2.5 mg/kg/injection, schedule: Q01DX Z (ip), vehicle: other): 205 % of control and 244 % of control
- T/C (endpoint: survival time, mean or median, dose: 3.0 mg/kg/injection, schedule: Q01DX010 (ip), vehicle: other): 186 % of control
- T/C (endpoint: survival time, mean or median, dose: 5.0 mg/kg/injection, schedule: Q01DX Z (ip), vehicle: other): 116 % of control
